Results from PubChem BioAssay (NCI).
Several values for one entry are separate records, joined by “and”; a condition that tells them apart may be missing. Equal entries are not always repeated.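 Each compound was tested at five concentrations against cells in 96-well plates for 48 hours. GI50: concentration for 50% inhibition of growth. TGI is the concentration that stops growth completely.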

Columns and labels:
Test in all cases: NCI tumour cell line growth inhibition, 48 h
A498 renal = test system: A498 renal
BT-549 breast = test system: BT-549 breast
HOP-62 NSCLC = test system: HOP-62 NSCLC
IGROV1 ovarian = test system: IGROV1 ovarian
MALME-3M melanoma = test system: MALME-3M melanoma
SF-295 CNS = test system: SF-295 CNS
SNB-75 CNS = test system: SNB-75 CNS
UO-31 renal = test system: UO-31 renal
COLO 205 colon = test system: COLO 205 colon
SK-OV-3 ovarian = test system: SK-OV-3 ovarian

SMILES | TGI (A498 renal) | TGI (BT-549 breast) | TGI (HOP-62 NSCLC) | TGI (IGROV1 ovarian) | TGI (MALME-3M melanoma) | TGI (SF-295 CNS) | TGI (SNB-75 CNS) | TGI (UO-31 renal) | TGI (COLO 205 colon) | TGI (SK-OV-3 ovarian) | GI50 (COLO 205 colon) | GI50 (HOP-62 NSCLC) | GI50 (MALME-3M melanoma) | GI50 (SF-295 CNS) | GI50 (SNB-75 CNS) | GI50 (UO-31 renal) | GI50 (A498 renal) | GI50 (BT-549 breast) | GI50 (IGROV1 ovarian) | GI50 (SK-OV-3 ovarian)
CCN(CC(=O)O)C(=O)c1cccnc1 | > 100 µM | > 100 µM | > 100 µM | > 100 µM | > 100 µM | > 100 µM | > 100 µM | > 100 µM |  |  |  |  |  |  |  |  |  |  |  | 
COc1cc2c(ccc3c4cc(OC)c(OC)cc4c[n+](C)c23)cc1O | 65.8 µM |  | 21 µM | > 75 µM | 66.4 µM | 54.9 µM | 16.4 µM | > 75 µM | > 75 µM | > 72.2 µM |  |  |  |  |  |  |  |  |  | 
CCOC(=O)C(NC(=O)c1ccco1)(Nc1nc2ccc(OCC)cc2s1)C(F)(F)F (stereo not drawn) |  | > 100 µM |  |  | > 100 µM | > 100 µM | 70.7 µM | > 100 µM | 46.4 µM | > 100 µM |  |  |  |  |  |  |  |  |  | 
CCOC(=O)C1=NN(c2ccc(C)cc2)C2=CC(C)=NN(C)C(=S)N21 |  | > 100 µM |  | > 100 µM |  | > 100 µM | > 100 µM | > 100 µM | > 100 µM | > 100 µM |  |  |  |  |  |  |  |  |  | 
COc1ccc2c(c1)[nH]c1c(/C=C/c3ccccc3)nccc12 | 26.6 µM | 29.9 µM | 41.4 µM | > 100 µM | 31.5 µM | 24.2 µM | 32.3 µM | 24 µM | 19.9 µM | 34.9 µM |  |  |  |  |  |  |  |  |  | 
CCn1c(-c2ccc(N=NNc3ccc(-c4n[nH]c(=S)n4CC)cc3)cc2)n[nH]c1=S | > 100 µM | 5.73 µM | 8.03 µM |  | 7.75 µM | 7.1 µM | 6.92 µM | 5.62 µM |  | 19.5 µM |  |  |  |  |  |  |  |  |  | 
[N-]=[N+]=CC(=O)c1ccccc1C#CCCc1ccccc1 | > 100 µM |  | > 100 µM | > 100 µM | 79.1 µM | > 100 µM | 61.4 µM | > 100 µM | 71.1 µM | 66.7 µM |  |  |  |  |  |  |  |  |  | 
CCCCCCCCC/C=C/C=C/C(=O)NCC(=O)NC1C(O)C(O)C(Nc2ncnc3nc[nH]c23)OC1C(O)CO (stereo not drawn) |  |  |  | 0.00337 µM | 0.381 µM | 1.08 µM and 8.98 µM | 0.018 µM and 0.0703 µM | 0.0177 µM and 0.0219 µM | 0.00389 µM and 0.0337 µM | 0.00892 µM | 0.0002 µM | 0.0011 µM | 0.00446 µM | 0.0441 µM | 0.00184 µM | 0.00344 µM |  |  |  | 
NC(=O)c1c(NC(=O)c2ccccn2)sc2c1CCC(=O)C2 | > 100 µM | > 100 µM | > 100 µM | > 100 µM |  |  |  | 6.63 µM |  | > 100 µM |  | > 100 µM |  |  |  | 1.82 µM | > 100 µM | 2.18 µM | 3.24 µM | > 100 µM
Nc1nc(SCCc2ccccc2)nc2nc3c(c(-c4ccccc4)c12)CCCC3 |  | > 100 µM | > 100 µM | > 100 µM | > 100 µM | > 100 µM | 83.7 µM | > 100 µM | > 100 µM | > 100 µM |  |  |  |  |  |  |  |  |  | 
NCCSC(c1ccccc1)c1ccccc1 | 62.5 µM | > 100 µM | 33.7 µM | 27.8 µM | 37.1 µM | 35.7 µM | 79.9 µM | 33.2 µM | 38.7 µM | 70.8 µM |  |  |  |  |  |  |  |  |  | 
C(=N\NC1=NCCN1)/c1ccc(-c2cn3cc(/C=N/NC4=NCCN4)ccc3n2)cc1 | > 100 µM | 52.9 µM |  | > 64.5 µM | > 100 µM | > 70.1 µM | > 100 µM | 99.8 µM | > 100 µM | > 100 µM |  |  |  |  |  |  |  |  |  | 
O=C(C[n+]1ccc2ccccc2c1)c1ccc2ccc3ccccc3c2c1 | 18.6 µM | 24 µM | 21.1 µM | 17.2 µM | 22.2 µM | 16.4 µM | 18.5 µM | 17.6 µM | 3.87 µM | 21 µM |  |  |  |  |  |  |  |  |  | 
CC(C)(C)c1cc(C2=NNC(c3ccccc3)C2)cc(C(C)(C)C)c1O (stereo not drawn) | 29.7 µM | 32 µM | 33.3 µM | 30.2 µM | 34.7 µM | 37.7 µM | 25.3 µM | 30.3 µM | 31.7 µM | 38.2 µM |  |  |  |  |  |  |  |  |  | 
Clc1cc2c(cc1Cl)CC(NCCN1CCCC1)CC2 (stereo not drawn) | 27.4 µM | 28.8 µM | 30.7 µM | 29 µM | 22.8 µM | 29.8 µM |  | 23.6 µM | 10.7 µM | 34.9 µM |  |  |  |  |  |  |  |  |  | 
Cc1nn(-c2ccccc2)c(C)c1/C=N/N=C1\SCC(=O)N1c1ccccc1 | 78.3 µM | 43 µM | 86.8 µM | 93.9 µM | 57.9 µM | 53.5 µM | 55 µM | 51.1 µM | 39.9 µM | 83 µM |  |  |  |  |  |  |  |  |  | 
Nc1cccc(/C=C/C(=O)N2CCN(CCOC(c3ccccc3)c3ccccc3)CC2)c1 | 31.6 µM | 29.2 µM | 32.4 µM | 33.6 µM | 31.2 µM | 32.1 µM | 26.2 µM | 30.5 µM | 33.1 µM | 32.7 µM |  |  |  |  |  |  |  |  |  | 
C[C@H](CCC(=O)O)[C@H]1CC[C@@]2(C)[C@@H]3C(=O)C[C@H]4C(C)(C)[C@@H](O)CC[C@]4(C)[C@H]3C(=O)C[C@]12C | > 100 µM | > 100 µM | > 100 µM | > 100 µM | > 100 µM | > 100 µM | > 100 µM | 30.2 µM | > 100 µM | > 100 µM |  |  |  |  |  |  |  |  |  | 
CCC1CN(C(=O)c2ccccc2)C(Cc2c[nH]c3ccccc23)C(=O)C1CC(=O)OC (stereo not drawn) | 64.3 µM | > 100 µM | > 100 µM | > 100 µM | > 100 µM | > 100 µM | > 100 µM | > 100 µM | > 100 µM | > 100 µM |  |  |  |  |  |  |  |  |  | 
CCC(C)C1=C(OC(C)=O)[N+]2([O-])Oc3ccc(-c4c(OC(C)=O)c(OC(C)=O)c(-c5ccc(OC(C)=O)cc5)c(OC(C)=O)c4OC(C)=O)cc3OC2(C(C)CC)C(=O)N1OC(C)=O (stereo not drawn) | > 50 µM |  |  | 34.4 µM | > 50 µM | 21.8 µM | 42.3 µM | > 50 µM | > 50 µM | > 50 µM |  |  |  |  |  |  |  |  |  | 
